Source: patent publication US12698507B2, “Methods and compositions for conferring and/or enhancing herbicide tolerance using protoporphyrinogen IX oxidase of various cyanobacteria or variant thereof” (FarmHannong Co., Ltd., priority 2019, dated 2026)

B1: CyPPO18 WT: PPO protein derived from Thermosynechococcus vulcanus NIES-2134 strain, SEQ ID NO: 3 (protein)
chain: MIEVDVAIVGGGLSGLSVAWRLQRSAPHYSGVLLEASDRLGGNITTQAAEGFVWELGPNSFAPTPALLQLIAEVGLHSELIRGDRHLPRYIYWRGELYPLEPTRPLALATSNLLSPWGKVRAALGALGFVPPYLGSGDESVDSFFRRHLGQEVAERLVAPFVSGVYAGDPQQLSAAAAFRRIAQLEKLGGSLIAGALRLRRQQPPQPKPPAQVQMRPGELGSFREGLAALPRAIAQQLKAPLHLQTPVEAITPEPKGGYLLRSGEQTWHARSVVLATPAYQSAELVAPFQPAIARALATIPYPTVACVVLAYPAGLGRSVRPGFGVLVPRGQGIRTLGTIWSSCLFPQRTPAGWQVFTSFIGGATDPDLASLREEAIVEQVQQDLTRLLDLPAAKARLLGMKVWRRAIPQYIVGYPQQWQQLTHALTQTPGLFLCSNYAEGVALGDRVEHGNRTAAAVAAYLAGGQS
modifications: Synthetic_PPO of Thermosynechococcus vulcanus NIES-2134 (BAY51976)

Experiments:
[1] = target: T1, Thermosynechococcus elongatus PKUAC-SCTE542 protoporphyrinogen IX oxidase CyPPO19, wild type, SEQ ID NO: 1 (MBP fusion) (Thermosynechococcus sichuanensis, UniProt A0A7D6JSC1); assay: PPO enzyme inhibition assay (IC50 for herbicides), CyPPO19 wild type fused to MBP; type: biochemical; details: CyPPO19 WT; 50 μM protoporphyrinogen IX, pH 7.5, room temperature, 30 min; read-out: IC50
T1 sequence (A0A7D6JSC1 1-467): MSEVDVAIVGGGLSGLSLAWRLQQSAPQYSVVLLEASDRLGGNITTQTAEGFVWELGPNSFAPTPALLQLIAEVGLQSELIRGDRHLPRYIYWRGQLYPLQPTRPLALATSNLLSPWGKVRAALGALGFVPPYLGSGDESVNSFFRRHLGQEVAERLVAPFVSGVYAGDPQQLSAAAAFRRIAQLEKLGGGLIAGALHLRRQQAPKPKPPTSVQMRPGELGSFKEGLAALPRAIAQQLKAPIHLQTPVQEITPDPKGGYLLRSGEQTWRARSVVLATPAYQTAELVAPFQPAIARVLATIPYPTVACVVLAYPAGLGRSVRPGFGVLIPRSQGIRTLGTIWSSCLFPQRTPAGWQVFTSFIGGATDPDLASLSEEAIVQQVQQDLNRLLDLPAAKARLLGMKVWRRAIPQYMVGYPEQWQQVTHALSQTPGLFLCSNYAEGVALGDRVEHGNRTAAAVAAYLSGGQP

[2] = test system: wild type A. thaliana (Col-0); assay: Herbicide injury of wild type A. thaliana (Col-0) after spraying; type: in vivo, Arabidopsis thaliana; details: 1 μM tiafenacil and 0.05% Silwet L-77, within 7 days
[3] = test system: transgenic A. thaliana (T1) transformed with CyPPO19, CyPPO18 or variant genes; assay: Herbicide tolerance of transgenic A. thaliana (T1 plants); type: in vivo, Arabidopsis thaliana; details: 1 μM tiafenacil and 0.05% Silwet L-77
Text: Transgenic plants were screened with glufosinate tolerance which was conferred by Bar gene expression in the binary vector. […] They were, then, transplanted into soil and grown to obtain T1 plants.

[4] = target: Thermosynechococcus elongatus PKUAC-SCTE542 protoporphyrinogen IX oxidase CyPPO19 (SEQ ID NO: 1) variant R89A (MBP fusion) (Thermosynechococcus sichuanensis, UniProt A0A7D6JSC1, R89A); assay: biochemical
Sequence of Thermosynechococcus elongatus PKUAC-SCTE542 protoporphyrinogen IX oxidase CyPPO19 (SEQ ID NO: 1) variant R89A (MBP fusion) (A0A7D6JSC1 entry or part of it R89A): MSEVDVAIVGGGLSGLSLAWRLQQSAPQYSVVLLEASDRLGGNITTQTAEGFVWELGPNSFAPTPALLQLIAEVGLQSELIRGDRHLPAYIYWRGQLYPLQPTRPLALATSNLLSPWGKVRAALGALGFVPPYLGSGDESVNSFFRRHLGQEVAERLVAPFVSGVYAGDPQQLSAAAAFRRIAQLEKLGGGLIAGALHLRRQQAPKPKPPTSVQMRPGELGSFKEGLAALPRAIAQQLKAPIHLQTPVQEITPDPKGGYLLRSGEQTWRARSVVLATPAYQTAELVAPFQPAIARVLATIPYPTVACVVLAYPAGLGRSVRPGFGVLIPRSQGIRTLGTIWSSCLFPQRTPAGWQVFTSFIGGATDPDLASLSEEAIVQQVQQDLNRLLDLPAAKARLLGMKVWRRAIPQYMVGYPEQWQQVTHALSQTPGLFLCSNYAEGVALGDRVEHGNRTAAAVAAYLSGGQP

[5] = target: Thermosynechococcus elongatus PKUAC-SCTE542 protoporphyrinogen IX oxidase CyPPO19 (SEQ ID NO: 1) variant V165C (MBP fusion) (Thermosynechococcus sichuanensis, UniProt A0A7D6JSC1, V165C); assay: PPO enzyme inhibition assay (IC50 for herbicides), CyPPO19 V165C fused to MBP; type: biochemical
Sequence of Thermosynechococcus elongatus PKUAC-SCTE542 protoporphyrinogen IX oxidase CyPPO19 (SEQ ID NO: 1) variant V165C (MBP fusion) (A0A7D6JSC1 entry or part of it V165C): as the sequence (A0A7D6JSC1 entry or part of it R89A) above, with A89R, V165C counted along it

[6] = target: Thermosynechococcus elongatus PKUAC-SCTE542 protoporphyrinogen IX oxidase CyPPO19 (SEQ ID NO: 1) variant V165S (MBP fusion) (Thermosynechococcus sichuanensis, UniProt A0A7D6JSC1, V165S); assay: biochemical; details: 50 μM protoporphyrinogen IX, pH 7.5, room temperature, 30 min, 10,000 means equivalent to or higher, read-out: IC50
Sequence of Thermosynechococcus elongatus PKUAC-SCTE542 protoporphyrinogen IX oxidase CyPPO19 (SEQ ID NO: 1) variant V165S (MBP fusion) (A0A7D6JSC1 entry or part of it V165S): as the sequence (A0A7D6JSC1 entry or part of it R89A) above, with A89R, V165S counted along it

[7] = target: Thermosynechococcus elongatus PKUAC-SCTE542 protoporphyrinogen IX oxidase CyPPO19 (SEQ ID NO: 1) variant A167C (MBP fusion) (Thermosynechococcus sichuanensis, UniProt A0A7D6JSC1, A167C); assay: biochemical
Sequence of Thermosynechococcus elongatus PKUAC-SCTE542 protoporphyrinogen IX oxidase CyPPO19 (SEQ ID NO: 1) variant A167C (MBP fusion) (A0A7D6JSC1 entry or part of it A167C): as the sequence (A0A7D6JSC1 entry or part of it R89A) above, with A89R, A167C counted along it

[8] = target: Thermosynechococcus elongatus PKUAC-SCTE542 protoporphyrinogen IX oxidase CyPPO19 (SEQ ID NO: 1) variant A167I (MBP fusion) (Thermosynechococcus sichuanensis, UniProt A0A7D6JSC1, A167I); assay: biochemical; details: 50 μM protoporphyrinogen IX, pH 7.5, room temperature, 30 min, 10,000 means equivalent to or higher, read-out: IC50
Sequence of Thermosynechococcus elongatus PKUAC-SCTE542 protoporphyrinogen IX oxidase CyPPO19 (SEQ ID NO: 1) variant A167I (MBP fusion) (A0A7D6JSC1 entry or part of it A167I): as the sequence (A0A7D6JSC1 entry or part of it R89A) above, with A89R, A167I counted along it

[9] = target: Thermosynechococcus elongatus PKUAC-SCTE542 protoporphyrinogen IX oxidase CyPPO19 (SEQ ID NO: 1) variant A167L (MBP fusion) (Thermosynechococcus sichuanensis, UniProt A0A7D6JSC1, A167L); assay: biochemical; details: 50 μM protoporphyrinogen IX, pH 7.5, room temperature, 30 min, 10,000 means equivalent to or higher, read-out: IC50
Sequence of Thermosynechococcus elongatus PKUAC-SCTE542 protoporphyrinogen IX oxidase CyPPO19 (SEQ ID NO: 1) variant A167L (MBP fusion) (A0A7D6JSC1 entry or part of it A167L): as the sequence (A0A7D6JSC1 entry or part of it R89A) above, with A89R, A167L counted along it

[10] = target: Thermosynechococcus elongatus PKUAC-SCTE542 protoporphyrinogen IX oxidase CyPPO19 (SEQ ID NO: 1) variant V305M (MBP fusion) (Thermosynechococcus sichuanensis, UniProt A0A7D6JSC1, V305M); assay: PPO enzyme inhibition assay (IC50 for herbicides), CyPPO19 V305M fused to MBP; type: biochemical
Sequence of Thermosynechococcus elongatus PKUAC-SCTE542 protoporphyrinogen IX oxidase CyPPO19 (SEQ ID NO: 1) variant V305M (MBP fusion) (A0A7D6JSC1 entry or part of it V305M): as the sequence (A0A7D6JSC1 entry or part of it R89A) above, with A89R, V305M counted along it

[11] = target: Thermosynechococcus elongatus PKUAC-SCTE542 protoporphyrinogen IX oxidase CyPPO19 (SEQ ID NO: 1) variant V305L (MBP fusion) (Thermosynechococcus sichuanensis, UniProt A0A7D6JSC1, V305L); assay: PPO enzyme inhibition assay (IC50 for herbicides), CyPPO19 V305L fused to MBP; type: biochemical
Sequence of Thermosynechococcus elongatus PKUAC-SCTE542 protoporphyrinogen IX oxidase CyPPO19 (SEQ ID NO: 1) variant V305L (MBP fusion) (A0A7D6JSC1 entry or part of it V305L): as the sequence (A0A7D6JSC1 entry or part of it R89A) above, with A89R, V305L counted along it

A. thaliana = assay: PPO-inhibiting herbicide tolerance test of transgenic A. thaliana (herbicide spray, injury index); type: in vivo, Arabidopsis thaliana; details: transgenic A. thaliana (T2), tiafenacil or flumioxazin spray

Molecule | IC50 [1] [nM] | survival after herbicide treatment [2] | survival after herbicide treatment [3] | IC50 [4] [nM] | IC50 [5] [nM] | IC50 [6] [nM] | IC50 [7] [nM] | IC50 [8] [nM] | IC50 [9] [nM] | IC50 [10] [nM] | IC50 [11] [nM] | herbicide tolerance compared to non-transgenic plants (A. thaliana)
COC(=O)CCNC(=O)C(C)Sc1cc(-n2c(=O)cc(C(F)(F)F)n(C)c2=O)c(F)cc1Cl (stereo not drawn) [Tiafenacil] | 67 | completely died within 7 days | survived | 113 | 186 | 269 | 342 | 248 | 597 | 392 | 1140 | –
B1 | – | – | – | – | – | – | – | – | – | – | – | increased herbicide tolerance
